The values that follow come from patent US6271238A, “Acetamide derivatives and protease inhibitors” (Nippon Kayaku Kabushiki Kaisha, priority 1996, dated 2001).

Common to all, as to assay type: biochemical
The target of one assay is T1, human chymase (Homo sapiens, UniProt P23946).
T1 construct: 60 g human tonsils were finely divided by scissors and a scalpel; from tissue; host or cells: human tonsils
T1 sequence (P23946 22-247): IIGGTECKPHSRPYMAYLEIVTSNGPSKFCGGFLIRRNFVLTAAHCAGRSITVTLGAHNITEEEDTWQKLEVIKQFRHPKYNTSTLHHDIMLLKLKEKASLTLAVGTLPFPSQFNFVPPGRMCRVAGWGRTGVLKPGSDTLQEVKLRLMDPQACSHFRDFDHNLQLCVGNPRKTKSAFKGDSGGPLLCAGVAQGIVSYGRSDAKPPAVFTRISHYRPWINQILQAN
Nature of the assay: Inhibitory activity on human chymase (angiotensin I as substrate). As to conditions: for IC50: substrate angiotensin I, pH 8.0, 37° C., 60 min, read-out: Human Chymase (IC50: nM), 50% inhibitory concentration. An excerpt: It is known that chymase is present in tissues of various animals, and its isolation and purification methods are described in Anal. Biochem., 137, 449 (1984) and FEBS Letters, 323, 119 (1993). In the present invention, chymase was purified by the methods described in these literatures, and the present compounds were examined for inhibitory activity on chymase, inhibitory action on activation of mast cells and eosinophils, and pharmacological action in animals. Hereinafter, specific methods are described. 50 g rat tongue was finely divided by scissors and a scalpel, suspended in 0.1 M phosphate buffer (pH 8.0), and disrupted by a Polytron homogenizer for 5 minutes to prepare a crude chymase enzyme solution. […] The supernatant was applied to an octyl Sepharose 4B column (40×100 mm) previously equilibrated with 0.1 M phosphate buffer (pH 8.0) containing 2 M sodium chloride and 5% ammonium sulfate, and the protein was eluted with a linear concentration gradient of from 2 M to 0 M sodium chloride. An active fraction decomposing succinyl leucyl leucyl valyl tyrosyl methylcumarylamide (hereinafter referred to as the synthetic chymase substrate, a product of Peptide Kenkyusho) was recovered and concentrated and this product was used as a purified rat chymase in the following activity measurement. (B) Preparation of human chymase 60 g human tonsils were finely divided by scissors and a scalpel, suspended in 0.1 M phosphate buffer (pH 8.0), and A-disrupted by a Polytron homogenizer for 5 minutes to prepare a crude chymase enzyme solution. It was centrifuged at 22000×g for 30 minutes, and the precipitates were used as a chymase enzyme fraction. […] The supernatant was concentrated by an ultrafiltration membrane, then applied to […] column (6.0×300 mm), and eluted with 0.1 M phosphate buffer (pH 8.0). An active fraction decomposing the synthetic chymase substrate was recovered and concentrated and this product was used as a purified human chymase in the following activity measurement. (D) Measurement of inhibitory activity on chymase (b) Measurement using angiotensin I as substrate The inhibitory activity on the human chymase and dog chymase was measured using angiotensin I (Peptide Kenkyusho) as substrate besides the above synthetic substrate. […] After the end of the reaction, produced angiotensin II was immediately measured by high performance liquid chromatography to determine the activity of the chymase to calculate 50% inhibitory concentration (IC50: nM). The test was conducted several times. Chymase was prepared for each test in the manner described above. The compounds examined were compounds prepared in the above-described examples. […] 50% Inhibitory concentration (IC50: nM) of each compound toward rat chymase, dog […] human […] Substrate: Succinyl leucyl leucyl valyl tyrosyl methylcoumarylamide (for rat […] angiotensin I (for human and dog chymase)

A further assay addresses T2, rat chymase (Rattus norvegicus, UniProt P09650).
T2 construct: 50 g rat tongue was finely divided by scissors and a scalpel; from tissue; host or cells: rat tongue
T2 sequence (P09650 21-260): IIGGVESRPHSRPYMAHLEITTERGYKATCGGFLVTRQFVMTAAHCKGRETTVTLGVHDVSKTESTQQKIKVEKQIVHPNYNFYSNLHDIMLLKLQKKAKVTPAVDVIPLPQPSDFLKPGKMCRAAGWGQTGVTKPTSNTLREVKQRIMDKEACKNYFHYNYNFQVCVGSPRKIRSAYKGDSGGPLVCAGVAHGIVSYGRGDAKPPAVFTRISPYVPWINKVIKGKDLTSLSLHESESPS
Nature of the assay: Inhibitory activity on rat chymase (synthetic substrate). Conditions: substrate succinyl leucyl leucyl valyl tyrosyl methylcoumarylamide; pH 8.0, 37° C., 15 min; read-out: Rat Chymase (IC50: nM), 50% inhibitory concentration. How it is done: In the present invention, chymase was purified by the methods described in these literatures, and the present compounds were examined for inhibitory activity on chymase, inhibitory action on activation of mast cells and eosinophils, and pharmacological action in animals. Hereinafter, specific methods are described. […] 50 g rat tongue was finely divided by scissors and a scalpel, suspended in 0.1 M phosphate buffer (pH 8.0), and disrupted by a Polytron homogenizer for 5 minutes to prepare a crude chymase enzyme solution. […] The supernatant was applied to an octyl Sepharose 4B column (40×100 mm) previously equilibrated with 0.1 M phosphate buffer (pH 8.0) containing 2 M sodium chloride and 5% ammonium sulfate, and the protein was eluted with a linear concentration gradient of from 2 M to 0 M sodium chloride. […] (D) Measurement of inhibitory activity on chymase (a) Measurement using the synthetic substrate The synthetic chymase substrate was used for measurement of the inhibitory activity on the rat chymase as a subtrate, and the fluorescence of formed aminomethylcoumarin after reaction was measured by a spectrophotometer. […] The test was conducted several times. Chymase was prepared for each test in the manner described above. The compounds examined were compounds prepared in the above-described examples. […] Succinyl leucyl leucyl valyl tyrosyl methylcoumarylamide (for rat […] angiotensin I (for human and dog chymase)

For a further assay, the target named is T3, dog chymase (Canis lupus familiaris, UniProt P21842).
T3 construct: 60 g dog heart was finely divided by scissors and a scalpel; from tissue; host or cells: dog heart
T3 sequence (P21842 22-249): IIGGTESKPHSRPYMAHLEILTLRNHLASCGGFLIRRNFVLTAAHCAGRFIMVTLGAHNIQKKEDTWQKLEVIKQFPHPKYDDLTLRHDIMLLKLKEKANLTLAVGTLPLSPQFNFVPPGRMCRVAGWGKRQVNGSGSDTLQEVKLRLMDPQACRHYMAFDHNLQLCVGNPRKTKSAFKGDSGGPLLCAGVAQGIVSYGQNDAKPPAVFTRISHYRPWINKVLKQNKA
Nature of the assay: Inhibitory activity on dog chymase (angiotensin I as substrate). Conditions: pH 8.0, 37° C., 60 min, read-out: Dog Chymase (IC50: nM), 50% inhibitory concentration. An excerpt:
It is known that chymase is present in tissues of various animals, and its isolation and purification methods are described in Anal. Biochem., 137, 449 (1984) and FEBS Letters, 323, 119 (1993). In the present invention, chymase was purified by the methods described in these literatures, and the present compounds were examined for inhibitory activity on chymase, inhibitory action on activation of mast cells and eosinophils, and pharmacological action in animals. Hereinafter, specific methods are described. (c) Preparation of dog chymase 60 g dog heart was finely divided by scissors and a scalpel, suspended in 0.1 M phosphate buffer (pH 8.0), and disrupted by a Polytron homogenizer for 5 minutes to prepare a crude chymase enzyme solution. It was centrifuged at 22000×g for 15 minutes, and the precipitates were used as a chymase enzyme fraction. […] An active fraction decomposing the synthetic chymase substrate was recovered and concentrated and this product was used as a purified dog chymase in the following activity measurement. (D) Measurement of inhibitory activity on chymase (b) Measurement using angiotensin I as substrate The inhibitory activity on the human chymase and dog chymase was measured using angiotensin I (Peptide Kenkyusho) as substrate besides the above synthetic substrate. […] After the end of the reaction, produced angiotensin II was immediately measured by high performance liquid chromatography to determine the activity of the chymase to calculate 50% inhibitory concentration (IC50: nM). The test was conducted several times. Chymase was prepared for each test in the manner described above. The compounds examined were compounds prepared in the above-described examples. […] 50% Inhibitory concentration (IC50: nM) of each compound toward rat chymase, dog […] human […] Substrate: Succinyl leucyl leucyl valyl tyrosyl methylcoumarylamide (for rat […] angiotensin I (for human and dog chymase)

A further assay has as its system other human proteases. Briefly: Inhibitory activity on other human proteases (summary). The protocol:
(E) Measurement of inhibitory activity on proteases other than chymase
The inhibitory activity of the present compounds on human elastase, human cathepsin G, human urokinase, human thrombin, human plasmin, and human factor Xa was determined using their corresponding synthetic substrates in the same manner as for chymase. All the above proteases were those commercially available from Boehringer Mannheim or purified by a combination of known methods. The synthetic substrates were those produced by Peptide Renkyusho. The synthetic substrates for the respective proteases are as follows.
The test was conducted several times. Chymase was prepared for each test in the manner described above. The compounds examined were compounds prepared in the above-described examples.

Molecules are shown by their SMILES. Where only a bound is given, the exact number is not on record here.

As for `CC(=O)C(=O)C(Cc1ccccc1)NC(=O)Cn1c(-c2ccccc2)ncc(NC(=O)OC(C)(C)C)c1=O` (stereo not drawn) [Compound 37, 2-(5-t-Butyloxycarbonylamino-6-oxo-1,6-dihydro-2-phenyl-1-pyrimidinyl)-N-(2,3-dioxo-1-phenylmethyl) butylacetamide], the figures for the IC50 on human chymase, at rat chymase and at dog chymase were 673 nM, 2900 nM and 22 nM, respectively.
As for `CC(C)(C)OC(=O)Nc1cnc(-c2ccccc2)n(CC(=O)NC(Cc2ccccc2)C(=O)C(=O)CCc2ccccc2)c1=O` (stereo not drawn) [Compound 41], the IC50 at human chymase amounted to 148 nM; at rat chymase, 740 nM; at dog chymase it was 13 nM.
Consider `Nc1cnc(-c2ccccc2)n(CC(=O)NC(Cc2ccccc2)C(=O)C(=O)c2ccccc2)c1=O` (stereo not drawn) [Compound 46], for which the IC50 on human chymase worked out at 1590 nM; at rat chymase it was 2800 nM; on dog chymase it was 494 nM.
In the case of `Nc1cnc(-c2ccccc2)n(CC(=O)NC(Cc2ccccc2)C(=O)C(=O)CCCC(=O)O)c1=O` (stereo not drawn) [Compound 48], the IC50 at human chymase was 314 nM; on rat chymase, over 10000 nM; at dog chymase, 33 nM.
For the molecule `CC(=O)C(=O)C(Cc1ccc(O)c(F)c1)NC(=O)Cn1c(-c2ccccc2)ncc(N)c1=O` (stereo not drawn) [Compound 50], the “inhibitory activity on human chymase, in words” value against human chymase is listed as “strong inhibitory activity on human chymase”. In addition, the IC50 was found to be 73 nM on human chymase, 690 nM at rat chymase and 19 nM on dog chymase. The “inhibitory activity on other human proteases, in words” value in the assay with other human proteases was “no inhibitory activity on other human proteases”.
In the case of `CC(=O)C(=O)C(Cc1ccc(F)cc1)NC(=O)Cn1c(-c2ccccc2)ncc(NC(=O)OC(C)(C)C)c1=O` (stereo not drawn) [Compound 55], the IC50 is over 10000 nM at human chymase, 920 nM at rat chymase and 98 nM at dog chymase.
As to `CC(=O)C(=O)C(Cc1ccc(Cl)cc1)NC(=O)Cn1c(-c2ccccc2)ncc(N)c1=O` (stereo not drawn) [Compound 58], the IC50 at human chymase was 2850 nM; at rat chymase it was 340 nM; on dog chymase it was 71 nM.
On the same counts, the results for `CC(=O)C(=O)C(Cc1cccc(C)c1)NC(=O)Cn1c(-c2ccccc2)ncc(N)c1=O` (stereo not drawn) [Compound 60] are 101 nM, 450 nM and 9.1 nM.
For `CC(=O)C(=O)C(Cc1cccc(Cl)c1)NC(=O)Cn1c(-c2ccccc2)ncc(N)c1=O` (stereo not drawn) [Compound 62] the same measures were 131 nM, 200 nM and 5 nM.
For the molecule `Nc1cnc(-c2ccccc2)n(CC(=O)NC(Cc2ccccc2)C(=O)C(=O)CCCOc2ccccn2)c1=O` (stereo not drawn) [Compound 75], the “inhibitory activity on human chymase, in words” value on human chymase is reported as “strong inhibitory activity on human chymase”. Besides, the IC50 was determined as 2.6 nM at human chymase, 220 nM at rat chymase and 1 nM on dog chymase. Further, the “inhibitory activity on other human proteases, in words” value in the assay with other human proteases is “no inhibitory activity on other human proteases”.
Turning to `CC(=O)Nc1cnc(-c2ccccc2)n(CC(=O)NC(Cc2ccccc2)C(=O)C(=O)CCCn2ccccc2=O)c1=O` (stereo not drawn) [Compound 76], the results for the IC50 on human chymase, on rat chymase and on dog chymase were 122 nM, 190 nM and 0.19 nM, respectively.
For the molecule `O=C(Cn1c(-c2ccccc2)ncc(NS(=O)(=O)Cc2ccccc2)c1=O)NC(Cc1ccccc1)C(=O)C(=O)CCCOc1ccccn1` (stereo not drawn) [Compound 77, 2-(5-Benzylsulfonylamino-6-oxo-2-phenyl-1,6-dihydropyrimidine-1-yl)-N-{2,3-dioxo-1-phenylmethyl-6-(2-pyridyloxy)}hexylacetamide], on human chymase, the “inhibitory activity on human chymase, in words” value is “strong inhibitory activity on human chymase”. Moreover, the IC50 on human chymase turned out to be 7 nM; on rat chymase, 48 nM; on dog chymase it was 1.4 nM. The “inhibitory activity on other human proteases, in words” value in the assay on other human proteases is reported as “no inhibitory activity on other human proteases”.
Consider `O=C(Cn1c(-c2ccccc2)ncc(NC(=O)C2CCOC2)c1=O)NC(Cc1ccccc1)C(=O)C(=O)CCCc1ccccc1` (stereo not drawn) [Compound 81], for which the IC50 at human chymase stood at 114 nM; at rat chymase, 150 nM; at dog chymase it was 0.29 nM.
